Experimental data as given in the supplement of paper PMC11208160.

Assay: recombinant barcode read abundance after kanamycin selection (control-corrected) (log10(CPM+1)); higher = more efficient recombination; sequences stand for … in AGTGCAGAGAAAATCGGCCAGTTTTCTCTGCCTGCAGTCCGCATGCCGT…AGATTTATGCAGCGGACTGCCTTTCTCCCAAAGTGATAAACCGGACAGTATCATGGACCGGTTTTCCCGGTAATCCGTATTTGCAAGGTTGGTTTCACT; site = the 11-nt target
Procedure, shortened: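 Pooled oligos, each joining a target to an IS621 bridge RNA target-binding loop, were cloned and co-electroporated with a donor plasmid into E. coli. Selective plates carried chloramphenicol/ampicillin/kanamycin and 0.1 mM IPTG, while chloramphenicol/ampicillin LB agar served as control, with two replicates of each. Recombination efficiency rests on averaged, control-corrected counts per million of barcodes at recombinant junctions, shown as log10(CPM+1).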
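Note: IS621 recombinase and bridge RNA in Escherichia coli cells.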

Sequence	recombinant barcode read abundance (log10)
CAGAGATCTTGGGTTCTAACCTGTTGCTT (site CATAGATCTAA)	0.104
CTACGTCCTTGGGTTCTAACCTGTTGCTT (site CTACGTCCTCA)	0.14
GAGGTCACTTGGGTTCTAACCTGTTGCTA (site GAGGTCACTTA)	2.26
GCACAACCTTGGGTTCTAACCTGTTGCCT (site GCACAACCTAG)	1.89
CTGAGCCCTTGGGTTCTAACCTGTTGCTG (site CTGAGCCCTCA)	1.5
GAACACTCTTGGGTTCTAACCTGTTGCTG (site TAACACTCTAA)	0.113
GCCATTCCTTGGGTTCTAACCTGTTGCAT (site GCCATTCCTAT)	0.347
GGAAGTTCTTGGGTTCTAACCTGTTGCCT (site GGAAGTTCTAG)	0.732
ACGCAATCTTGGGTTCTAACCTGTTGCCT (site ACGCATTCTAG)	0.157
TGGCCCTCTTGGGTTCTAACCTGTTGCTG (site TGGCCCTCTGA)	0.0444
CCTACTCCTTGGGTTCTAACCTGTTGCCT (site CCTACTCCTAG)	0.281
CTCCAAGCTTGGGTTCTAACCTGTTGCCT (site CTACAAGCTAG)	0.105
CAGCCACCTTGGGTTCTAACCTGTTGCCT (site AAGCCACCTAG)	0.0775
TCCCGAGCTTGGGTTCTAACCTGTTGCCT (site TCCCGATCTAG)	0.119
CCGGAGCCTTGGGTTCTAACCTGTTGCCT (site CCGCAGCCTAG)	0.271
CAGACGACTTGGGTTCTAACCTGTTGCCA (site CAGACGACTTG)	0.37
TTCCCGCCTTGGGTTCTAACCTGTTGCCT (site TTCGCGCCTAG)	0.489
TGGCGCTCTTGGGTTCTAACCTGTTGCCT (site TGTCGCTCTAG)	0.0369
AGCTTAGCTTGGGTTCTAACCTGTTGCCT (site AGCTTAGCTTG)	0.158
TCTAACCCTTGGGTTCTAACCTGTTGCAT (site TCTAACCCTAT)	0.251
GGGTCCTCTTGGGTTCTAACCTGTTGCCC (site GGGTCCTCTGG)	1.23
TACTATGCTTGGGTTCTAACCTGTTGCCT (site TACTATCCTAG)	0.163

Sequence	recombinant barcode read abundance (log10)
TACGAGGCTTGGGTTCTAACCTGTTGCCT (site TACGTGGCTAG)	0.0666
ACATGTACTTGGGTTCTAACCTGTTGCCG (site ACATGTACTCG)	0.158
ACGTTTCCTTGGGTTCTAACCTGTTGCAT (site AAGTTTCCTAC)	0.0104
TGTCTAGCTTGGGTTCTAACCTGTTGCCT (site TGGCTAGCTAG)	0.0711
GTAGGAACTTGGGTTCTAACCTGTTGCTG (site CGGCTGTCTAG)	0.0122
AACTCAACTTGGGTTCTAACCTGTTGCCT (site AACTTAACTAG)	0.107
CTGGTCCCTTGGGTTCTAACCTGTTGCGG (site CTGCTCCCTCC)	0.0151
CCGCTAGCTTGGGTTCTAACCTGTTGCCT (site TCGCTAGCTAG)	0.046
CTACCACCTTGGGTTCTAACCTGTTGCCT (site CTACCACCTAG)	1.8
TAGCTCCCTTGGGTTCTAACCTGTTGCCT (site TAGCTCCCTCG)	0.0637
TGGGACTCTTGGGTTCTAACCTGTTGCCA (site TGGGACTCTTG)	2.29
TACGAGGCTTGGGTTCTAACCTGTTGCCT (site TACGGGGCTAG)	0.0616
GGGTTCACTTGGGTTCTAACCTGTTGCCG (site GAGTTCACTAG)	0.0415
AGGCGCCCTTGGGTTCTAACCTGTTGCAC (site AGGCGCCCTAT)	0.249
TGGGATCCTTGGGTTCTAACCTGTTGCAT (site AGGGGTCCTAT)	0.0813
TAACATACTTGGGTTCTAACCTGTTGCAT (site TAACCTACTAT)	0.139
TAAGACGCTTGGGTTCTAACCTGTTGCCT (site TATGACGCTAG)	1.05
CTCCAAGCTTGGGTTCTAACCTGTTGCCT (site CTCCAAGCTAG)	0.665
TGAACGCCTTGGGTTCTAACCTGTTGCCT (site TGAACGCCTAG)	0.39
CTTACCGCTTGGGTTCTAACCTGTTGCCT (site CTTACTGCTAG)	0.273
TTGGGTGCTTGGGTTCTAACCTGTTGCAT (site TTGGGTGCTAT)	1.3
AGACGTCCTTGGGTTCTAACCTGTTGCTT (site AGACATCCTAA)	0.197

Sequence	recombinant barcode read abundance (log10)
CTAATGTCTTGGGTTCTAACCTGTTGCCT (site CTAATGTCTAG)	1.65
TGGGTCCCTTGGGTTCTAACCTGTTGCCT (site TGCGTCCCTAG)	0.102
CTACGTCCTTGGGTTCTAACCTGTTGCTG (site CTACGTCCTGA)	0.203
GTAGACCCTTGGGTTCTAACCTGTTGCGT (site GTAGACCCTCA)	0.309
CATAGTCCTTGGGTTCTAACCTGTTGCCT (site CAGAGTCCTAA)	0.0573
GGGTTGCCTTGGGTTCTAACCTGTTGCCT (site GGGTTGCCTAG)	1.46
ACTGGTACTTGGGTTCTAACCTGTTGCCT (site ACGGGTACTAG)	0.161
GTAGCAGCTTGGGTTCTAACCTGTTGCTC (site GTAGCAGCTGA)	1.4
TTAGACTCTTGGGTTCTAACCTGTTGCCT (site TTCGACGCTAG)	0.172
GAAGAGTCTTGGGTTCTAACCTGTTGCCT (site GCAGAGTCTAG)	0.0703
GGAGAGGCTTGGGTTCTAACCTGTTGCCT (site GGAGATGCTAG)	0.0967
TCGGAGGCTTGGGTTCTAACCTGTTGCTG (site TCCGAGGCTCA)	0.325
TACGCTCCTTGGGTTCTAACCTGTTGCTT (site TACGCTCCTAC)	0.176
TTGAAATCTTGGGTTCTAACCTGTTGCCT (site TTGACATCTAG)	0.0533
TCAGTATCTTGGGTTCTAACCTGTTGCCT (site TCAGTATCTAG)	1.4
TAGCTCCCTTGGGTTCTAACCTGTTGCCG (site TAGCTCCCTCG)	1.43
TCTTGTTCTTGGGTTCTAACCTGTTGCCT (site GCTTGTTCTAG)	0.0895
CGGGCCTCTTGGGTTCTAACCTGTTGCTA (site CGGGCCTCTTA)	2.38
GTCTTGACTTGGGTTCTAACCTGTTGCCA (site GTCTTAACTCG)	0.0812
GCGCCCTCTTGGGTTCTAACCTGTTGCCG (site GCGCCCTCTCG)	0.606
ACTAGGACTTGGGTTCTAACCTGTTGCAG (site ACTAGGACTCT)	2.49
GTCTAATCTTGGGTTCTAACCTGTTGCAT (site GTCTAATCTAT)	1.02

Sequence	recombinant barcode read abundance (log10)
CAGAGATCTTGGGTTCTAACCTGTTGCTT (site CACAGATCTAA)	0.137
TAGACATCTTGGGTTCTAACCTGTTGCGT (site TAGACATCTAC)	1.65
TTCTGAGCTTGGGTTCTAACCTGTTGCCT (site TTCTGAGCTAG)	0.184
AAGCATCCTTGGGTTCTAACCTGTTGCCT (site ATGCATCCTAG)	0.00873
ATCTTAGCTTGGGTTCTAACCTGTTGCCT (site ATCTTATCTAG)	0.197
CTTAAATCTTGGGTTCTAACCTGTTGCCT (site CTTCAATCTAG)	0.0867
AACCAGTCTTGGGTTCTAACCTGTTGCGA (site AACTAGTCTTA)	0.0824
TGTGAGTCTTGGGTTCTAACCTGTTGCAT (site TGTGAGTCTAA)	0.107
AGGTAGACTTGGGTTCTAACCTGTTGCCA (site AGGGAGACTTG)	0.179
GGGACCTCTTGGGTTCTAACCTGTTGCGT (site GGGACCTCTCC)	0.201
TCGTGCTCTTGGGTTCTAACCTGTTGCCT (site TCGTGCCCTAG)	0.282
AATGCTCCTTGGGTTCTAACCTGTTGCTT (site AATGCTCCTAC)	0.0515
TTGGGCACTTGGGTTCTAACCTGTTGCCT (site TTGGTCACTAG)	0.103
AGGTTTGCTTGGGTTCTAACCTGTTGCCT (site AGGTATGCTAG)	0.168
AATGCTCCTTGGGTTCTAACCTGTTGCTT (site AATGCTCCTAT)	0.135
GTTCGAGCTTGGGTTCTAACCTGTTGCCT (site GTTCGAGCTAG)	1.61
CCTTGGACTTGGGTTCTAACCTGTTGCAA (site CCTTGGACTTT)	0.546
TAATCCTCTTGGGTTCTAACCTGTTGCCT (site TAATCCTCTAG)	1.3
GGAATGCCTTGGGTTCTAACCTGTTGCCT (site GGAATCCCTAG)	0.0574
GCAAGTCCTTGGGTTCTAACCTGTTGCGT (site GCAAGTCCTAC)	2.47
